Results: ChEMBL document CHEMBL1152017, “Peptide-binding antibiotics: A solid-phase assay for screening libraries of vancomycin mimics for selective d-Ala-d-Ala binding” (Bioorg Med Chem Lett, 1997)

Experiment: The compound was tested for binding constant against d-Ala-d-Ala termini on bacterial cell surface

Row | KA | Structure (SMILES)
1 | < 0.02 mM⁻¹ | C[C@H](NC(=O)CNS(=O)(=O)c1cccc2c(N(C)C)cccc12)C(=O)O[C@H](C)C(=O)O
2 | 1.3 mM⁻¹ | C[C@@H](NC(=O)[C@@H](C)NC(=O)CNS(=O)(=O)c1cccc2c(N(C)C)cccc12)C(=O)O
3 | 16 mM⁻¹ | C[C@H](NC(=O)CNS(=O)(=O)c1cccc2c(N(C)C)cccc12)C(=O)N[C@H](C)C(=O)O
4 | 1.1 mM⁻¹ | C[C@H](NC(=O)[C@H](C)NC(=O)CNS(=O)(=O)c1cccc2c(N(C)C)cccc12)C(=O)O
